For the experiment, the system named is Staphylococcus epidermidis. Nature of the experiment: Traditional culture-based antimicrobial susceptibility test. It is filed as cell-based. The source says: Table 1 illustrates the results of an example antimicrobial agent susceptibility test of the current application versus a traditional culture-based antimicrobial agent susceptibility test for Staphylococcus epidermidis. This specimen underwent extraction or DNA purification prior to PCR. The results of the test of the current application are similar to the results from the traditional test, with the results from the test of the current application being reportable considerably earlier than the test of the traditional test due no pathogen isolation requirement and due to less incubation time being required for the test of the current application. Result Reporting to Healthcare Providers. The results from the antimicrobial exposure are reported to the ordering healthcare provider. This information can be utilized by the healthcare provider when selecting an antimicrobial regimen for their individual patient based on these individual specimen results and patient specific factors. […] The current standard of care for antimicrobial susceptibility testing involves the growth, isolation, and exposure of pathogens to antimicrobials. This traditional culture and sensitivity process can take multiple days to obtain results, limiting the ability of healthcare providers to receive timely results to make actionable changes in patient care or management. Healthcare providers desire a method to obtain antimicrobial susceptibility results with quicker turn-around-time. This application discloses a molecular-based phenotypic antimicrobial susceptibility method which involves pathogen exposure to a panel of antimicrobial agents at their specified minimum inhibitory concentration breakpoints for sensitivity. This method allows for more timely antimicrobial susceptibility results.

The text below walks through data of US20250290117A1, “MOLECULAR PHENOTYPIC ANTIMICROBIAL SUSCEPTIBILITY TESTING” (priority 2024, published 2025).

On to `CN[C@H](CC(C)C)C(=O)N[C@H]1C(=O)N[C@@H](CC(N)=O)C(=O)N[C@H]2C(=O)N[C@H]3C(=O)N[C@H](C(=O)N[C@H](C(=O)O)c4cc(O)cc(O)c4-c4cc3ccc4O)[C@H](O)c3ccc(c(Cl)c3)Oc3cc2cc(c3O[C@@H]2O[C@H](CO)[C@@H](O)[C@H](O)[C@H]2O[C@H]2C[C@](C)(N)[C@H](O)[C@H](C)O2)Oc2ccc(cc2Cl)[C@H]1O` [Vancomycin], for which the “Traditional Culture Result” value (S. epidermidis isolate 1) is listed as “Sensitive”; the “Traditional Culture Result” value (S. epidermidis isolate 2) is “Sensitive”; the “Traditional Culture Result” value (S. epidermidis isolate 3) is “Sensitive”; the “Traditional Culture Result” value (S. epidermidis isolate 4) was “Sensitive”; the “Traditional Culture Result” value (S. epidermidis isolate 5) is on record as “Sensitive”.
Consider `CO/N=C(\C(=O)N[C@@H]1C(=O)N2C(C(=O)[O-])=C(C[N+]3(C)CCCC3)CS[C@H]12)c1csc(N)n1` [Cefepime], for which the “Traditional Culture Result” value (S. epidermidis isolate 1) is reported as “Resistant”; the “Traditional Culture Result” value (S. epidermidis isolate 2) was “Resistant”; the “Traditional Culture Result” value (S. epidermidis isolate 3) is given as “Resistant”; the “Traditional Culture Result” value (S. epidermidis isolate 4) is on record as “Resistant”; the “Traditional Culture Result” value (S. epidermidis isolate 5) is recorded as “Resistant”.
Turning to Trimethoprim/Sulfamethoxazole [TMP/SMX], the “Traditional Culture Result” value (S. epidermidis isolate 1) was “Resistant”; the “Traditional Culture Result” value (S. epidermidis isolate 2) was “Resistant”; the “Traditional Culture Result” value (S. epidermidis isolate 3) is listed as “Resistant”; the “Traditional Culture Result” value (S. epidermidis isolate 4) is given as “Resistant”; the “Traditional Culture Result” value (S. epidermidis isolate 5) was “Resistant”.
